These are literature values, as cited in patent US20090182024A1, “EXTENDED RELEASE TABLET FORMULATION CONTAINING PRAMIPEXOLE OR A PHARMACEUTICALLY ACCEPTABLE SALT THEREOF” (BOEHRINGER INGELHEIM INTERNATIONAL GMBH, priority 2004, published 2009).

The conditions of data set [1]: in vivo.
Test in data set [2]: not given
This is another data set of the same source.

Structures can show the parent of a compound that is named as a salt.

As for `CCCN[C@H]1CCc2nc(N)sc2C1` [Pramipexole dihydrochloride monohydrate, pramipexole dihydrochloride monohydrate], the “solubility in buffer media” value (between pH 2 and pH 7.4) is “above 10 mg/mL”. For the same molecule, the Water solubility entry (water) is “more than 20 mg/mL”.
In the case of `CCCN[C@H]1CCc2nc(N)sc2C1` [Pramipexole, (S)-2-amino-4,5,6,7-tetrahydro-6-(propylamino)benzothiazole], in data set [1], the kinetics result is listed as “linear kinetics”. For the same molecule, in data set [2] (in solution), the stability in solution result is listed as “light sensitive”. In addition, in data set [2] (solid state), the “stability in the solid state” value is recorded as “very stable”.
